In patent US10696675B2, “Imidazopyridopyrimidine derivative compound and use thereof” (HANMI PHARMACEUTICAL CO., LTD., priority 2016, dated 2020):

Columns and labels:
FGFR1 = FGFR1 (Homo sapiens, UniProt P11362); assay: Activity inhibition for FGFR1 kinase (Z′-LYTE biochemical assay, Invitrogen SelectScreen); settings: ATP concentration based on Km
Experimental: (§1) For the synthesized compounds, inhibitory activity for FGFR1, 2, 3, 4 kinase was measured. Activity measurement was carried out by requesting to SelectScreen® Biochemical Kinase Profiling Service of Invitrogen. A Z′-LYTE® biochemical assay method was used, and the ATP concentration was set based on the Km value.

FGFR4 = FGFR4 (Homo sapiens, UniProt P22455); assay: Activity inhibition for FGFR4 kinase (Z′-LYTE biochemical assay, Invitrogen SelectScreen); settings: ATP concentration based on Km
Sequence of FGFR4 (P22455 22-802): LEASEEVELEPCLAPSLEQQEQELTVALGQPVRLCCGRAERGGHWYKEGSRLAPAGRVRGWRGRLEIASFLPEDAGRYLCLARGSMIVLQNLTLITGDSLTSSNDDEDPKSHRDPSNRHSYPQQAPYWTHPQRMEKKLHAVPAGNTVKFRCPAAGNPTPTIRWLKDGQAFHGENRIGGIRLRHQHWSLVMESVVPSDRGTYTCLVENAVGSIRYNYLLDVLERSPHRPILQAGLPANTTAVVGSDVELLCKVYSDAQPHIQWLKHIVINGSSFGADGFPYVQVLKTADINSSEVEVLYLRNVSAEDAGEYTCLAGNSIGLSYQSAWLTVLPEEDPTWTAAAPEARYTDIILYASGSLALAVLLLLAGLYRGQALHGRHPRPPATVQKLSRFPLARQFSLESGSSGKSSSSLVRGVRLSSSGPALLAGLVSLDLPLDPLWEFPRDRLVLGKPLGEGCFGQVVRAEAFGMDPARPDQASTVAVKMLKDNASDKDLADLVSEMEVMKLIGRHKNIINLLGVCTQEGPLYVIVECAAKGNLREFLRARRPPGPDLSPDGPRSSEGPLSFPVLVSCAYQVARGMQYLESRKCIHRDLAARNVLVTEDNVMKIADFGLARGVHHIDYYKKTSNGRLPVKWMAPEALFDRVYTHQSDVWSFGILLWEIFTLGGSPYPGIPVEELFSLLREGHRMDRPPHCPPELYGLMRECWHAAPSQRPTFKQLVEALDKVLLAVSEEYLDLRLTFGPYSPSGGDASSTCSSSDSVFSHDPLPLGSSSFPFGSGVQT
Experimental: as §1

HUH7 cells = assay: Proliferation inhibitory effect for HUH7 cells (SRB assay); format: cell-based; settings: Homo sapiens, Huh-7, 72 hours, GI50, read-out: IC50 HUH7 Cell Line
Experimental: Test Example 2: Measuring Inhibitory Effect of FGFR Inhibitor Using Cell Line
The test was carried out for identifying a proliferation inhibitory effect of the compound of the present invention for HUH7 cells. HUH7 cell lines were counted and 5.0×10^3 cells were inoculated per well in a 96 well plate. After the innoculation, the cells were cultured for 24 hours in a 37 □ and 5% carbon dioxide (CO2) incubator. On the next day, the synthesized compounds were each diluted and prepared. The diluted compounds were introduced to the cell lines inoculated the previous day by concentrations, and reacted for 72 hours in a 37 □ and 5% carbon dioxide (CO2) incubator. However, to a positive control to which the compound was not added, 0.1% dimethyl sulfoxide (DMSO) diluted with a medium was introduced. To a negative control plate, a trichloroacetic acid (TCA) solution was introduced, and fixed at 4 □. After reacting for 72 hours, the medium including the compound was removed, a TCA solution was added thereto, and the cells were fixed for 30 minutes to 60 minutes at 4 □. The TCA solution was discarded, the plate was washed off with distilled water and then dried in the air. A 0.4% sulforhodamin B (SRB) solution was added to the plate and dyed for 10 minutes at room temperature. The plate was washed off with tap water including a 1% acetic acid solution, and then dried in the air. A 10 mM Trizma base solution was added to dissolve the solid SRB. Using a microplate reader, optical density (O.D. value) was measured at 540 nm. A GI50 value of each of the compounds was calculated using GraphPad Prism V6.0 Software.

Sequence of FGFR1 (P11362 22-822): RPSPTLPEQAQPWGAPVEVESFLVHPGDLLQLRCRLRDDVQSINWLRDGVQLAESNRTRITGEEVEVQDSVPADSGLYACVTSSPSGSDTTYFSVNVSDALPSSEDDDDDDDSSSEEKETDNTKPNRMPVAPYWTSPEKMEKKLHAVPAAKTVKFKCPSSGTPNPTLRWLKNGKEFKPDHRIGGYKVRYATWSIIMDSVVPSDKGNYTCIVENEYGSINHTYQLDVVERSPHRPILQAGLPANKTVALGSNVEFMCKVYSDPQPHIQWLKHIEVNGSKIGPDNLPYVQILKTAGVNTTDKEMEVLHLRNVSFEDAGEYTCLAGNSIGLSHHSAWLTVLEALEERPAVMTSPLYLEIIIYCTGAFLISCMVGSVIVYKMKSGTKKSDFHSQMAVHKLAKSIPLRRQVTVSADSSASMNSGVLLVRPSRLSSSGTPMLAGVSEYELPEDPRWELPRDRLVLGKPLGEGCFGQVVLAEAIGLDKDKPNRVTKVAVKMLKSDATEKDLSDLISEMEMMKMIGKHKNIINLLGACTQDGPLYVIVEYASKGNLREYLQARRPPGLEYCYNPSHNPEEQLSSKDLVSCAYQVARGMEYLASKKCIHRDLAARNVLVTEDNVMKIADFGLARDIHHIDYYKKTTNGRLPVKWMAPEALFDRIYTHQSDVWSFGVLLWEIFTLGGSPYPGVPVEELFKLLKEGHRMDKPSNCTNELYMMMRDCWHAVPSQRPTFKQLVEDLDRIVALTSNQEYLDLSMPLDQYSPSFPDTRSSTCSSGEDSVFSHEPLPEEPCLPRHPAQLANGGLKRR

SMILES | IC50 (FGFR1) [nM] | IC50 (FGFR4) [nM] | IC50 (HUH7 cells) [nM]
C=CC(=O)Nc1cc(S(C)(=O)=O)ccc1Nc1ncc2cc(-c3c(Cl)c(OC)cc(OC)c3Cl)c3nccn3c2n1 [compound 18] | < 50 | < 50 | 50 to 500
C=CC(=O)Nc1cc(N2CCS(=O)(=O)CC2)ccc1Nc1ncc2cc(-c3c(Cl)c(OC)cc(OC)c3Cl)c3nccn3c2n1 [compound 36] | < 50 | < 50 | < 50
C=CC(=O)Nc1cc(OC2CCCC2)ccc1Nc1ncc2cc(-c3c(Cl)c(OC)cc(OC)c3Cl)c3nccn3c2n1 [compound 54] | > 500 | 50 to 500 | 50 to 500
C=CC(=O)Nc1cccc(C)c1Nc1ncc2cc(-c3c(Cl)c(OC)cc(OC)c3Cl)c3nccn3c2n1 [compound 9] | > 500 | < 50 | 50 to 500
C=CC(=O)Nc1cc(N2CCN(CC)CC2)ccc1Nc1cc2c(cn1)cc(-c1c(Cl)c(OC)cc(OC)c1Cl)c1nccn12 [compound 85] | < 50 | < 50 | < 50
C=CC(=O)Nc1cc(N2CCOCC2)ccc1Nc1ncc2cc(-c3c(Cl)c(OC)cc(OC)c3Cl)c3nccn3c2n1 [compound 32] | – | < 50 | < 50
C=CC(=O)Nc1cc(N2CC(OC)C2)ccc1Nc1ncc2cc(-c3c(Cl)c(OC)cc(OC)c3Cl)c3nccn3c2n1 [compound 37] | < 50 | < 50 | < 50
C=CC(=O)Nc1cc(N2CCN(CC)CC2)ccc1Nc1ncc2cc(-c3c(Cl)c(OC)cc(OC)c3Cl)c3nccn3c2n1 [compound 31] | – | < 50 | < 50
C=CC(=O)Nc1cc(OCCOC)ccc1Nc1ncc2cc(-c3c(Cl)c(OC)cc(OC)c3Cl)c3nccn3c2n1 [compound 29] | < 50 | < 50 | < 50
C=CC(=O)Nc1cccc(F)c1Nc1ncc2cc(-c3c(Cl)c(OC)cc(OC)c3Cl)c3nccn3c2n1 [compound 10] | 50 to 500 | < 50 | < 50
C=CC(=O)Nc1cc(O[C@@H]2CCOC2)ccc1Nc1ncc2cc(-c3c(Cl)c(OC)cc(OC)c3Cl)c3nccn3c2n1 [compound 53] | – | < 50 | < 50
C=CC(=O)Nc1cc(N2CCOCC2)cc(C)c1Nc1ncc2cc(-c3c(Cl)c(OC)cc(OC)c3Cl)c3nccn3c2n1 [compound 63] | 50 to 500 | < 50 | 50 to 500
C=CC(=O)Nc1cc(N2CCOCC2)ccc1Nc1ncc2cc(-c3c(F)c(OC)cc(OC)c3F)c3nccn3c2n1 [compound 73] | – | – | < 50
C=CC(=O)Nc1cc(F)c(F)cc1Nc1ncc2cc(-c3c(F)c(OC)cc(OC)c3F)c3nccn3c2n1 [compound 77] | – | – | 50 to 500
C=CC(=O)Nc1cc(Cl)ccc1Nc1ncc2cc(-c3c(Cl)c(OC)cc(OC)c3Cl)c3nccn3c2n1 [compound 15] | – | – | 50 to 500
C=CC(=O)Nc1cc(OC2CCN(C)CC2)c(F)cc1Nc1ncc2cc(-c3c(Cl)c(OC)cc(OC)c3Cl)c3nccn3c2n1 [compound 62] | – | – | < 50
C=CC(=O)Nc1cc(F)cc(C)c1Nc1ncc2cc(-c3c(Cl)c(OC)cc(OC)c3Cl)c3nccn3c2n1 [compound 64] | – | – | > 500
C=CC(=O)Nc1cc(F)cc(F)c1Nc1ncc2cc(-c3c(F)c(OC)cc(OC)c3F)c3nccn3c2n1 [compound 76] | – | – | 50 to 500
C=CC(=O)Nc1cn(C)nc1Nc1ncc2cc(-c3c(Cl)c(OC)cc(OC)c3Cl)c3nccn3c2n1 [compound 71] | – | – | 50 to 500
C=CC(=O)Nc1cccc(OC)c1Nc1ncc2cc(-c3c(Cl)c(OC)cc(OC)c3Cl)c3nccn3c2n1 [compound 11] | 50 to 500 | < 50 | 50 to 500
C=CC(=O)Nc1cc(N2CCOCC2)c(C)cc1Nc1ncc2cc(-c3c(Cl)c(OC)cc(OC)c3Cl)c3nccn3c2n1 [compound 61] | < 50 | < 50 | < 50
C=CC(=O)Nc1cc(C#N)ccc1Nc1ncc2cc(-c3c(Cl)c(OC)cc(OC)c3Cl)c3nccn3c2n1 [compound 17] | – | – | 50 to 500
C=CC(=O)Nc1cc(N2CCOCC2)cc(Cl)c1Nc1ncc2cc(-c3c(Cl)c(OC)cc(OC)c3Cl)c3nccn3c2n1 [compound 68] | – | – | > 500
C=CC(=O)Nc1cc(OCC)ccc1Nc1ncc2cc(-c3c(Cl)c(OC)cc(OC)c3Cl)c3nccn3c2n1 [compound 27] | – | – | < 50
C=CC(=O)Nc1cccc(Cl)c1Nc1ncc2cc(-c3c(F)c(OC)cc(OC)c3F)c3nccn3c2n1 [compound 79] | – | – | 50 to 500
C=CC(=O)Nc1cc(OC)ccc1Nc1ncc2cc(-c3c(Cl)c(OC)cc(OC)c3Cl)c3nccn3c2n1 [compound 26] | – | – | < 50
C=CC(=O)Nc1cc(N2C[C@@H](C)O[C@@H](C)C2)ccc1Nc1ncc2cc(-c3c(Cl)c(OC)cc(OC)c3Cl)c3nccn3c2n1 [compound 38] | < 50 | < 50 | < 50
C=CC(=O)Nc1cc(N2CC[C@H](OC)C2)ccc1Nc1ncc2cc(-c3c(Cl)c(OC)cc(OC)c3Cl)c3nccn3c2n1 [compound 44] | – | – | < 50
C=CC(=O)Nc1cc(N2CCN(CC)CC2)cc(F)c1Nc1ncc2cc(-c3c(Cl)c(OC)cc(OC)c3Cl)c3nccn3c2n1 [compound 66] | – | – | > 500

The next lines start with the values.

IC50 (FGFR1) [nM] | IC50 (FGFR4) [nM] | IC50 (HUH7 cells) [nM] | SMILES
< 50 | < 50 | < 50 | C=CC(=O)Nc1cc(N(C)CCOC)ccc1Nc1ncc2cc(-c3c(Cl)c(OC)cc(OC)c3Cl)c3nccn3c2n1 [compound 25]
< 50 | < 50 | < 50 | C=CC(=O)Nc1cc(N2CCN(C)CC2)ccc1Nc1ncc2cc(-c3c(Cl)c(OC)cc(OC)c3Cl)c3nccn3c2n1 [compound 52]
< 50 | < 50 | < 50 | C=CC(=O)Nc1cc(N2CCOCC2)ccc1Nc1cc2c(cn1)cc(-c1c(Cl)c(OC)cc(OC)c1Cl)c1nccn12 [Synthesis Example 83, N-(2-((4-(2,6-dichloro-3,5-dimethoxyphenyl)imidazo[1,2-a][1,6]naphthyridin-8-yl)amino)-5-morpholinophenyl)acrylamide]
< 50 | < 50 | < 50 | C=CC(=O)Nc1cc(N2CCN(S(C)(=O)=O)CC2)ccc1Nc1ncc2cc(-c3c(Cl)c(OC)cc(OC)c3Cl)c3nccn3c2n1 [compound 35]
> 500 | < 50 | < 50 | C=CC(=O)Nc1cccc(F)c1Nc1ncc2cc(-c3c(F)c(OC)cc(OC)c3F)c3nccn3c2n1 [Synthesis Example 72, N-(2-((6-(2,6-difluoro-3,5-dimethoxyphenyl)imidazo[1′,2′:1,6]pyrido[2,3-d]pyrimidin-2-yl)amino)-3-fluorophenyl)acrylamide]
< 50 | < 50 | < 50 | C=CC(=O)Nc1cc(N2CC[C@H](N(C)C)C2)ccc1Nc1ncc2cc(-c3c(Cl)c(OC)cc(OC)c3Cl)c3nccn3c2n1 [compound 48]
– | – | > 500 | COc1cc(OC)c(Cl)c(-c2cc3cnc(-c4cccc(N5CCOCC5)c4)nc3n3ccnc23)c1Cl [Synthesis Example 80, 4-(3-(6-(2,6-dichloro-3,5-dimethoxyphenyl)imidazo[1′,2′:1,6]pyrido[2,3-d]pyrimidin-2-yl)phenyl)morpholine]
> 500 | 50 to 500 | 50 to 500 | C=CC(=O)Nc1cc(C)cc(C)c1Nc1ncc2cc(-c3c(Cl)c(OC)cc(OC)c3Cl)c3nccn3c2n1 [compound 58]
– | – | < 50 | C=CC(=O)Nc1cccc(Nc2ncc3cc(-c4c(Cl)c(OC)cc(OC)c4Cl)c4nccn4c3n2)c1 [compound 7]
– | – | < 50 | C=CC(=O)Nc1cc(O[C@@H]2CCOC2)c(F)cc1Nc1ncc2cc(-c3c(Cl)c(OC)cc(OC)c3Cl)c3nccn3c2n1 [compound 59]
– | – | < 50 | C=CC(=O)Nc1cc(N2CCC(OC)C2)ccc1Nc1ncc2cc(-c3c(Cl)c(OC)cc(OC)c3Cl)c3nccn3c2n1 (stereo not drawn) [compound 41]
– | – | < 50 | C=CC(=O)Nc1cc(OC2CCN(CC)CC2)ccc1Nc1ncc2cc(-c3c(Cl)c(OC)cc(OC)c3Cl)c3nccn3c2n1 [compound 56]
– | – | 50 to 500 | C=CC(=O)Nc1ccc(F)c(F)c1Nc1ncc2cc(-c3c(F)c(OC)cc(OC)c3F)c3nccn3c2n1 [compound 78]
– | – | < 50 | C=CC(=O)Nc1cc(N2CCOCC2)cnc1Nc1cc2c(cn1)cc(-c1c(Cl)c(OC)cc(OC)c1Cl)c1nccn12 [compound 86]
< 50 | < 50 | < 50 | C=CC(=O)Nc1cc(N2CCNCC2)ccc1Nc1ncc2cc(-c3c(Cl)c(OC)cc(OC)c3Cl)c3nccn3c2n1 [compound 39]
